# Tests used:
# Penicillium expansum = details: literature; cited from earlier work
# 3T3F442A preadipocytes [1] = assay: Adipocyte differentiation: triglyceride accumulation (Adipored) in differentiated 3T3F442A cells; assay type: cell-based; details: 168 h, 0.3 μg/ml, 7 days differentiation, FIG. 2, read-out: inhibition (accumulation of triglycerides), optimum activity
# Description: The Applicant has studied on the one hand the effect of a dry extract of Zanthoxylum bungeanum, and on the other hand the effect of xanthoxyline, on the process of adipocyte differentiation and proliferation. […] 3T3F442A prepadipocytes are capable of differentiating into adipocytes in the presence of insulin, 3-isobutyl-1-methylxanthine and dexamethasone (the Journal of Pharmacology and Experimental Therapeutics: RIVAL Y., 2004, 311(2): 467-475). […] 3T3F442A cells are cultured in DMEM medium (GIBCOBRL, ref 32430-027) containing 10% foetal calf serum at 37° C., 5% CO2 in a humid atmosphere. They are seeded at 5000 cells per well (96-well plate). […] The visualisation and quantification of intracellular lipid vacuoles in the differentiated cells are analysed using Adipored reagent, a fluorescent colorant specific to triglycerides (neutral and amphiphilic lipids) (Journal of Cell Biology: […]., 1985, 100: 965-973). The culture medium is removed and the cells are rinsed with phosphate buffer D-PBS (GIBCOBRL, ref 21300-058). Adipored reagent is then added. After incubation for 10 minutes at ambient temperature, the fluorescence is measured (excitation 485 nm, emission 530 nm). A histological analysis using a confocal Laser microscope (ZEISS LSM 410 Invert Laser scan Microscope) is also carried out at 543 nm.
# [2] = tested on: gram-positive and gram-negative bacteria; details: literature; cited from earlier work
# Candida albicans = details: literature; cited from earlier work
# [3] = tested on: pathogenic fungi such as Trichophyton; details: literature; cited from earlier work
# 3T3F442A preadipocytes [4] = details: adipocyte differentiation model over a long culture period; literature; cited from earlier work
Molecule,Anti-fungal activity (Penicillium expansum),inhibition at 0.3 µg/mL (3T3F442A preadipocytes [1]) [%],Anti-bacterial activity [2],Anti-fungal activity (Candida albicans),Anti-fungal activity [3],inhibition of the accumulation of triglycerides (3T3F442A preadipocytes [4])
"COc1cc(O)c(C(C)=O)c(OC)c1 [Xanthoxyline, 4,6-dimethoxy-2-hydroxyacetophenone]",moderate,12,mediocre,moderate,moderate,–
TNFα,–,–,–,–,–,known to inhibit the accumulation of triglycerides
